Patent US20260263485A1, “AMINOSTEROL COMPOUNDS, AMINOSTEROL-CYCLODEXTRIN FORMULATIONS, AND METHODS OF USING THE SAME” (Enterin, Inc., priority 2022, published 2026)

What was measured:
[1] = Identification of metabolites of ENT-03S in rat bile samples (UPLC-MS/MS); conditions: bile duct cannulated male SD rats, 10 mg/kg ENT-03S SC; for Metabolite peak area percentages Rat Bile: pooled bile 0-24 h, relative XIC peak area; for Metabolite peak area Rat Bile: pooled bile, XIC peak area
Description: An equal volume of rat bile samples (50 μL) were taken from different animals at different time points following administration of ENT-03S. 50 μL of matrix was mixed with 200 μL of methanol (containing 0.1% formic acid), vortexed for 100 seconds and then centrifuged at 16,000 g for 10 minutes at 4° C. to precipitate proteins. 100 μL of the supernatant was transferred to a new tube and the supernatant diluted with 100 μt, pure water, mixed well and analyzed using UPLC-MS/MS.
The peak area percentages of parent drug and each metabolite were determined by semi-quantitative estimation using the extracted ion chromatogram peak areas of all detected drug-related material in the sample. Metabolites with percentage of peak area>10% are proposed as major metabolites of ENT-03S.
Bile samples were obtained from male rats at various time points following a 10 mg/kg dose of ENT-03S via subcutaneous administration in bile dicut cannulated male SD rats as detailed in Table 10. The samples were transferred on dry ice and stored at −80° C. prior to use
Study design: An equal volume of rat bile samples (50 μL) were taken from different animals at different time points following administration of ENT-03S in study No.: PII-DMPK-ETR-21-001. 50 μL of matrix was mixed with 200 μL of methanol (containing 0.1% formic acid), vortexed for 100 seconds and then centrifuged at 16,000 g for 10 minutes at 4° C. to precipitate proteins. 100 μL of the supernatant was transferred to a new tube and the supernatant diluted with 100 μL pure water, mixed well and analyzed using UPLC-MS/MS.
Sample preparation: For bile samples, an equal volume of samples (50 μL) are taken from different animals at various time points after the administration of each group of samples, and the same group of samples are mixed thoroughly.
Data Analysis: UPLC-MS/MS was used for sample analysis, and was conducted using a DionexUltiMate 3000/Vanquish UHPLC system. For mass spectrometry (MS), all analysis was carried out with a Q-Exactive instrument (Thermo Fisher). A full MS scan was used to trigger the data dependent acquisition (DDA) of MS/MS scan spectra. Compound dependent parameters were optimized by ENT-03S. DDA settings were used to trigger acquisition of MS^2 spectra for ions whose intensity is in top 5 of all, with exclusion of impurity ions (m/z 149.02332, m/z 279.15909, m/z 391.28429 and m/z 445.12003), after 3 occurrences for 10 s. Dynamic exclusion settings: automatic exclusion of the ions which have been taken.
Data Analysis: The analysis was carried out using a thermo Fisher Scientific Q Exactive instrument. Full MS scan was used to trigger the data dependent acquisition (DDA) of MS/MS scan spectra. Compound dependent parameters were optimized by ENT-03S. DDA settings were used to trigger acquisition of MS^2 spectra for ions whose intensity was in the top 5 of all, with exclusion of ions (m/z 149.02332, m/z 279 1 5909, m/z 391.28429 and m/z 445 12003), after 3 occurrences for 10 s. Data was acquired and processed using Xcalibur v4.1 software (Thermo Fisher Scientific) and Compound Discoverer 3.1 (Thermo Fisher Scientific) and Excel (Microsoft 2016).

[2] = Identification of metabolites of ENT-03S in rat plasma and urine samples (UPLC-MS/MS); type: in vivo
Description: An equal number of rat urine (50 μL) were taken from different animals at various time points following administration of ENT-03S. For plasma samples, the Hamilton pooling method was used.
Study design: An equal number of rat urine (50 μL) samples were taken from different animals at various time points from study No.: PH-DMPK-ETR-21-001 following administration of ENT-03S. For plasma samples, the Hamilton pooling method was used.
The samples were then analysed using UPLC-MS/MS.
Compound dependent parameters were optimized by ENT-03S.

[3] = cited from earlier work
[4] = Plasma pharmacokinetics of ENT-03S cyclodextrin formulation after subcutaneous injection; type: in vivo, rat; conditions: Sprague-Dawley, rat; 20% beta-cyclodextrin formulation; SC Dose 10 mg/kg; male SD rats; plasma; mean; read-out: Tmax Mean
Description: In this example, ENT-03S was formulated with unmodified beta-cyclodextrin at a concentration of 25 mg/ml ENT-03, and 20% beta-cyclodextrin, pH 7.5, buffered with phosphate.
Male Sprague-Dawley rats were administered the ENT-03-cyclodextrin formulation subcutaneous at a dose of 10 mg/kg. Blood samples were drawn from the tail vein at various times, the concentrations of ENT-03 determined, and PK parameters determined.

PTP1B = conditions: in vitro, bank of commercially available phosphatases; cited from earlier work

With C[C@H](CCC[C@H](C)C(=O)O)[C@H]1CCC2C3C(CC[C@@]21C)[C@@]1(C)CC[C@H](NCCCNCCCCNCCC(=O)O)C[C@@H]1C[C@H]3O (stereo partly drawn) [ENT-25S] the “Metabolite peak area percentages Rat Bile” value [1] was 9.52% and the “Metabolite peak area Rat Bile” value [1] was 1.17E+07.
For C[C@H](CCC(=O)O)[C@H]1CCC2C3C(CC[C@@]21C)[C@@]1(C)CC[C@H](NCCCNCCCCNCCCN)C[C@@H]1C[C@H]3O (single isomer, unassigned) [ENT-17], the “Metabolite peak area percentages Rat Plasma Male” value ([2]; pooled male SD rat plasma 0.25-24 h after 10 mg/kg ENT-03S SC, relative XIC peak area) was 0.55%, the “Metabolite peak area Rat Plasma Male” value ([2]; pooled male SD rat plasma after 10 mg/kg ENT-03S SC, XIC peak area) was 3.62E+06 and the “Metabolite peak area percentages Rat Urine Male” value ([2]; pooled male SD rat urine 0-24 h after 10 mg/kg ENT-03S SC, relative XIC peak area, “—”: not observed) was 7.56%. The “Metabolite peak area Rat Urine Male” value ([2]; pooled male SD rat urine after 10 mg/kg ENT-03S SC, XIC peak area, “—”: not observed) was 1.70E+05.
With C[C@H](CCC(=O)NCCS(=O)(=O)O)[C@H]1CCC2C3C(CC[C@@]21C)[C@@]1(C)CC[C@H](NCCC(=O)O)C[C@@H]1C[C@H]3O (some centres unmarked) [M3-RB] the “Metabolite peak area percentages Rat Bile” value [1] was 2.27% and the “Metabolite peak area Rat Bile” value [1] was 2.80E+06.
With C[C@H](C[C@H](C)C(=O)O)[C@H]1CCC2C3C(CC[C@@]21C)[C@@]1(C)CC[C@H](NCCC(=O)O)C[C@@H]1C[C@H]3O (some centres unmarked) [M16-RB] the “Metabolite peak area percentages Rat Bile” value [1] was 0.69% and the “Metabolite peak area Rat Bile” value [1] was 8.45E+05.
For C[C@H](CCC[C@H](C)C(=O)O)[C@H]1CCC2C3C(CC[C@@]21C)[C@@]1(C)CC[C@H](NCCCNCCCC(=O)O)C[C@@H]1C[C@H]3O (some centres unmarked) [M10-PU/M14-RB], the “Metabolite peak area percentages Rat Bile” value [1] was 3.23% and the “Metabolite peak area Rat Bile” value [1] was 3.98E+06.
In the case of CC(CCC[C@@H](C)[C@H]1CCC2C3C(CC[C@@]21C)[C@@]1(C)CC[C@H](NCCCNCCCCNCCCN)C[C@@H]1C[C@H]3O)C(=O)O (single isomer, unassigned) [ENT-03], the hepatic steatosis ([3]; in vivo) is given as “reduces hepatic steatosis”, the insulin sensitivity ([3]; in vivo) is given as “acutely increases insulin sensitivity” and the “food intake and body weight” value ([3]; peripheral and central administration to lean rodents) is given as “prolonged reduction in food intake and body weight”. The Tmax [4] was 2 h and the “inhibition of PTP1B relative to the other phosphatases assayed” value (PTP1B) was “most potently inhibited”.
